Organism: Homo sapiens
Experiment: Selectivity ratio of IC50 for human MC5 receptor to IC50 for human MC4 receptor

SMILES | Ratio IC50
CC(=O)N(CC(C1CCCCC1)N1CCN(C(=O)[C@@H]2CN(C(C)(C)C)C[C@H]2c2ccc(F)cc2F)CC1)C(C)C (stereo in doubt; 19B) | 20
CC(=O)N(CC(CC(C)C)N1CCN(C(=O)[C@@H]2CN(C(C)(C)C)C[C@H]2c2ccc(F)cc2F)CC1)C(C)C (single isomer, unassigned; diastereomer 2) | 20
CC(C)N(CC(C1CCCCC1)N1CCN(C(=O)[C@@H]2CN(C(C)(C)C)C[C@H]2c2ccc(F)cc2F)CC1)S(C)(=O)=O (single isomer, unassigned; diastereomer 2) | 20
CC(C)CC(CN(C(C)C)S(C)(=O)=O)N1CCN(C(=O)[C@@H]2CN(C(C)(C)C)C[C@H]2c2ccc(F)cc2F)CC1 (single isomer, unassigned; diastereomer 2) [listing 1 of 2 here] | 20
CC(C)N(CC(C1CCCCC1)N1CCN(C(=O)[C@@H]2CN(C(C)(C)C)C[C@H]2c2ccc(F)cc2F)CC1)C(=O)c1cnn(C(C)C)c1 (single isomer, unassigned; diastereomer 1) | 20

Organism: Homo sapiens
Experiment: Selectivity ratio of EC50 for human MC1 receptor to EC50 for human MC4 receptor

SMILES | Ratio EC50
CC(=O)N(CC(C1CCCCC1)N1CCN(C(=O)[C@@H]2CN(C(C)(C)C)C[C@H]2c2ccc(F)cc2F)CC1)C(C)C (stereo in doubt; 19B) | 20
CC(=O)N(CC(CC(C)C)N1CCN(C(=O)[C@@H]2CN(C(C)(C)C)C[C@H]2c2ccc(F)cc2F)CC1)C(C)C (single isomer, unassigned; diastereomer 2) | 20
CC(C)N(CC(C1CCCCC1)N1CCN(C(=O)[C@@H]2CN(C(C)(C)C)C[C@H]2c2ccc(F)cc2F)CC1)S(C)(=O)=O (single isomer, unassigned; diastereomer 2) | 20
CC(C)CC(CN(C(C)C)S(C)(=O)=O)N1CCN(C(=O)[C@@H]2CN(C(C)(C)C)C[C@H]2c2ccc(F)cc2F)CC1 (single isomer, unassigned; diastereomer 2) [listing 1 of 2 here] | 20
CC(C)N(CC(C1CCCCC1)N1CCN(C(=O)[C@@H]2CN(C(C)(C)C)C[C@H]2c2ccc(F)cc2F)CC1)C(=O)c1cnn(C(C)C)c1 (single isomer, unassigned; diastereomer 1) | 20

What follows are compounds tested against T1, Melanocyte-stimulating hormone receptor (Homo sapiens, UniProt Q01726) (assay: Displacement of [125I]NDP-alpha-MSH from human MC1 receptor expressed in CHO cells).
Assay type: cell-based
Target sequence in this assay (Q01726 whole entry): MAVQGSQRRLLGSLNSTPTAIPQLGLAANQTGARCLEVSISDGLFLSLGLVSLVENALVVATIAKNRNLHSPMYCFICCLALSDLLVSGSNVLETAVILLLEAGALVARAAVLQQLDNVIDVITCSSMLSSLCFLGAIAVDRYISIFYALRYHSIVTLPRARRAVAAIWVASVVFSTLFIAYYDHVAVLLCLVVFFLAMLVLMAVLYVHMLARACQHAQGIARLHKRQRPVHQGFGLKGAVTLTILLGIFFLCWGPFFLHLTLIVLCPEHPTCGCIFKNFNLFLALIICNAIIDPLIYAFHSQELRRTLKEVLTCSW

SMILES | IC50
CC(C)CC(CN(C(C)C)S(C)(=O)=O)N1CCN(C(=O)[C@@H]2CN(C(C)(C)C)C[C@H]2c2ccc(F)cc2F)CC1 (single isomer, unassigned; diastereomer 2) [listing 2 of 2 here] | 5 µM

The compounds below were run against T2, Melanocortin receptor 4 (Homo sapiens, UniProt P32245) (assay: Agonist activity at human MC4 receptor expressed in CHO cells assessed as increase of alpha-MSH-induced cAMP accumulation at 10 uM relative to alpha-MSH).
T2 sequence (P32245 whole entry): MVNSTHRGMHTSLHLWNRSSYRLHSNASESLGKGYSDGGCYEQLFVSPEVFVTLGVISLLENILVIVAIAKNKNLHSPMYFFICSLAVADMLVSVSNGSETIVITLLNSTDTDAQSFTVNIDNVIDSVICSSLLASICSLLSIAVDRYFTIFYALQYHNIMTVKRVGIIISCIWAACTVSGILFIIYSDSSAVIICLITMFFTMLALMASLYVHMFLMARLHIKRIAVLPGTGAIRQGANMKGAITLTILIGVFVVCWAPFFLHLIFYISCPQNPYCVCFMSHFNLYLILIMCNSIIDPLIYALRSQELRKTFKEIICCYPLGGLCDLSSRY
Assay type: functional, cell-based

SMILES | Activity
CC(=O)N(CC(C1CCCCC1)N1CCN(C(=O)[C@@H]2CN(C(C)(C)C)C[C@H]2c2ccc(F)cc2F)CC1)C(C)C (stereo in doubt; 19B) | 123%
CC(=O)N(CC(CC(C)C)N1CCN(C(=O)[C@@H]2CN(C(C)(C)C)C[C@H]2c2ccc(F)cc2F)CC1)C(C)C (single isomer, unassigned; diastereomer 2) | 113%
CC(C)N(CC(C1CCCCC1)N1CCN(C(=O)[C@@H]2CN(C(C)(C)C)C[C@H]2c2ccc(F)cc2F)CC1)S(C)(=O)=O (single isomer, unassigned; diastereomer 2) | 117%
CC(C)CC(CN(C(C)C)S(C)(=O)=O)N1CCN(C(=O)[C@@H]2CN(C(C)(C)C)C[C@H]2c2ccc(F)cc2F)CC1 (single isomer, unassigned; diastereomer 2) [listing 1 of 2 here] | 100%
CC(C)N(CC(C1CCCCC1)N1CCN(C(=O)[C@@H]2CN(C(C)(C)C)C[C@H]2c2ccc(F)cc2F)CC1)C(=O)c1cnn(C(C)C)c1 (single isomer, unassigned; diastereomer 1) | 106%

The compounds below were run against T1, Melanocyte-stimulating hormone receptor (assay: Agonist activity at human MC1 receptor expressed in CHO cells assessed as increase of alpha-MSH-induced cAMP accumulation at 10 uM relative to alpha-MSH).
Assay type: functional, cell-based
Target sequence in this assay (Q01726 whole entry, looked up): as the sequence (Q01726 whole entry) above

SMILES | Activity
CC(=O)N(CC(C1CCCCC1)N1CCN(C(=O)[C@@H]2CN(C(C)(C)C)C[C@H]2c2ccc(F)cc2F)CC1)C(C)C (stereo in doubt; 19B) | 61%
CC(=O)N(CC(CC(C)C)N1CCN(C(=O)[C@@H]2CN(C(C)(C)C)C[C@H]2c2ccc(F)cc2F)CC1)C(C)C (single isomer, unassigned; diastereomer 2) | 77%
CC(C)N(CC(C1CCCCC1)N1CCN(C(=O)[C@@H]2CN(C(C)(C)C)C[C@H]2c2ccc(F)cc2F)CC1)S(C)(=O)=O (single isomer, unassigned; diastereomer 2) | 63%
CC(C)CC(CN(C(C)C)S(C)(=O)=O)N1CCN(C(=O)[C@@H]2CN(C(C)(C)C)C[C@H]2c2ccc(F)cc2F)CC1 (single isomer, unassigned; diastereomer 2) [listing 1 of 2 here] | 62%
CC(C)N(CC(C1CCCCC1)N1CCN(C(=O)[C@@H]2CN(C(C)(C)C)C[C@H]2c2ccc(F)cc2F)CC1)C(=O)c1cnn(C(C)C)c1 (single isomer, unassigned; diastereomer 1) | 60%

These compounds were tested against T2, Melanocortin receptor 4 (assay: Agonist activity at human MC4 receptor expressed in CHO cells assessed as increase of alpha-MSH-induced cAMP accumulation).
Assay type: functional, cell-based

SMILES | EC50
CC(C)CC(CN(C(C)C)S(C)(=O)=O)N1CCN(C(=O)[C@@H]2CN(C(C)(C)C)C[C@H]2c2ccc(F)cc2F)CC1 (single isomer, unassigned; diastereomer 2) [listing 2 of 2 here] | 19 nM

The compounds below were run against T1, Melanocyte-stimulating hormone receptor (assay: Agonist activity at human MC1 receptor expressed in CHO cells assessed as increase of alpha-MSH-induced cAMP accumulation).
Assay type: functional, cell-based
Target sequence in this assay (Q01726 whole entry): as above

SMILES | EC50
CC(C)CC(CN(C(C)C)S(C)(=O)=O)N1CCN(C(=O)[C@@H]2CN(C(C)(C)C)C[C@H]2c2ccc(F)cc2F)CC1 (single isomer, unassigned; diastereomer 2) [listing 2 of 2 here] | > 5 µM

The compounds below were run against T3, Melanocortin receptor 3 (Homo sapiens, UniProt P41968) (assay: Agonist activity at human MC3 receptor expressed in CHO cells assessed as increase of alpha-MSH-induced cAMP accumulation).
T3 sequence (P41968 whole entry): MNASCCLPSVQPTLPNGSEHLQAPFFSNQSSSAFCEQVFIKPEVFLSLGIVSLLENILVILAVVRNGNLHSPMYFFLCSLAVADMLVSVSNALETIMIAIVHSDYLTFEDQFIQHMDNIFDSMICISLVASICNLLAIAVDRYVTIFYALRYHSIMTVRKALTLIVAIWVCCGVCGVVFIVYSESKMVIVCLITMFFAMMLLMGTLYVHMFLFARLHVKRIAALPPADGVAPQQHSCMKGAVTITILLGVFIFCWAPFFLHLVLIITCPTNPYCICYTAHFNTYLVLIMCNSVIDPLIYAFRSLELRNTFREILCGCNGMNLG
Assay type: functional, cell-based

SMILES | EC50
CC(C)CC(CN(C(C)C)S(C)(=O)=O)N1CCN(C(=O)[C@@H]2CN(C(C)(C)C)C[C@H]2c2ccc(F)cc2F)CC1 (single isomer, unassigned; diastereomer 2) [listing 2 of 2 here] | 2500 nM

What follows are compounds tested against T2, Melanocortin receptor 4 (assay: Displacement of [125I]NDP-alpha-MSH from human MC4 receptor expressed in CHO cells).
Assay type: cell-based

SMILES | IC50
CC(C)CC(CN(C(C)C)S(C)(=O)=O)N1CCN(C(=O)[C@@H]2CN(C(C)(C)C)C[C@H]2c2ccc(F)cc2F)CC1 (single isomer, unassigned; diastereomer 2) [listing 2 of 2 here] | 27 nM

Each compound was assayed against T4, Melanocortin receptor 5 (Homo sapiens, UniProt P33032) (assay: Agonist activity at human MC5 receptor expressed in CHO cells assessed as increase of alpha-MSH-induced cAMP accumulation).
T4 sequence (P33032 whole entry): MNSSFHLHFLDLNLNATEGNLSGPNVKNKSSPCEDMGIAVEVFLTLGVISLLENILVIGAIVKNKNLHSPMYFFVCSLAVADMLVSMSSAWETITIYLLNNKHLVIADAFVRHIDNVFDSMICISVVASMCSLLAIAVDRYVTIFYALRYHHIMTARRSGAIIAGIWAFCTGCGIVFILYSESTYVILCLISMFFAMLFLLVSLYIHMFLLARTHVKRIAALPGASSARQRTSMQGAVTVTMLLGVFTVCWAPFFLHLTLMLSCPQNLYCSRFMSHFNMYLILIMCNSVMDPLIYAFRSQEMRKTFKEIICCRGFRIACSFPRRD
Assay type: functional, cell-based

SMILES | EC50
CC(C)CC(CN(C(C)C)S(C)(=O)=O)N1CCN(C(=O)[C@@H]2CN(C(C)(C)C)C[C@H]2c2ccc(F)cc2F)CC1 (single isomer, unassigned; diastereomer 2) [listing 2 of 2 here] | > 5 µM

Organism: Homo sapiens
Experiment: Selectivity ratio of IC50 for human MC1 receptor to IC50 for human MC4 receptor

SMILES | Ratio IC50
CC(=O)N(CC(C1CCCCC1)N1CCN(C(=O)[C@@H]2CN(C(C)(C)C)C[C@H]2c2ccc(F)cc2F)CC1)C(C)C (stereo in doubt; 19B) | 20
CC(=O)N(CC(CC(C)C)N1CCN(C(=O)[C@@H]2CN(C(C)(C)C)C[C@H]2c2ccc(F)cc2F)CC1)C(C)C (single isomer, unassigned; diastereomer 2) | 20
CC(C)N(CC(C1CCCCC1)N1CCN(C(=O)[C@@H]2CN(C(C)(C)C)C[C@H]2c2ccc(F)cc2F)CC1)S(C)(=O)=O (single isomer, unassigned; diastereomer 2) | 20
CC(C)CC(CN(C(C)C)S(C)(=O)=O)N1CCN(C(=O)[C@@H]2CN(C(C)(C)C)C[C@H]2c2ccc(F)cc2F)CC1 (single isomer, unassigned; diastereomer 2) [listing 1 of 2 here] | 20
CC(C)N(CC(C1CCCCC1)N1CCN(C(=O)[C@@H]2CN(C(C)(C)C)C[C@H]2c2ccc(F)cc2F)CC1)C(=O)c1cnn(C(C)C)c1 (single isomer, unassigned; diastereomer 1) | 20

Each compound was assayed against T3, Melanocortin receptor 3 (assay: Agonist activity at human MC3 receptor expressed in CHO cells assessed as increase of alpha-MSH-induced cAMP accumulation at 10 uM relative to alpha-MSH).
Assay type: functional, cell-based

SMILES | Activity
CC(=O)N(CC(C1CCCCC1)N1CCN(C(=O)[C@@H]2CN(C(C)(C)C)C[C@H]2c2ccc(F)cc2F)CC1)C(C)C (stereo in doubt; 19B) | 81%
CC(=O)N(CC(CC(C)C)N1CCN(C(=O)[C@@H]2CN(C(C)(C)C)C[C@H]2c2ccc(F)cc2F)CC1)C(C)C (single isomer, unassigned; diastereomer 2) | 109%
CC(C)N(CC(C1CCCCC1)N1CCN(C(=O)[C@@H]2CN(C(C)(C)C)C[C@H]2c2ccc(F)cc2F)CC1)S(C)(=O)=O (single isomer, unassigned; diastereomer 2) | 94%
CC(C)CC(CN(C(C)C)S(C)(=O)=O)N1CCN(C(=O)[C@@H]2CN(C(C)(C)C)C[C@H]2c2ccc(F)cc2F)CC1 (single isomer, unassigned; diastereomer 2) [listing 1 of 2 here] | 87%
CC(C)N(CC(C1CCCCC1)N1CCN(C(=O)[C@@H]2CN(C(C)(C)C)C[C@H]2c2ccc(F)cc2F)CC1)C(=O)c1cnn(C(C)C)c1 (single isomer, unassigned; diastereomer 1) | 102%

These compounds were tested against T4, Melanocortin receptor 5 (assay: Agonist activity at human MC5 receptor expressed in CHO cells assessed as increase of alpha-MSH-induced cAMP accumulation at 10 uM relative to alpha-MSH).
Assay type: functional, cell-based

SMILES | Activity
CC(=O)N(CC(C1CCCCC1)N1CCN(C(=O)[C@@H]2CN(C(C)(C)C)C[C@H]2c2ccc(F)cc2F)CC1)C(C)C (stereo in doubt; 19B) | 64%
CC(=O)N(CC(CC(C)C)N1CCN(C(=O)[C@@H]2CN(C(C)(C)C)C[C@H]2c2ccc(F)cc2F)CC1)C(C)C (single isomer, unassigned; diastereomer 2) | 56%
CC(C)N(CC(C1CCCCC1)N1CCN(C(=O)[C@@H]2CN(C(C)(C)C)C[C@H]2c2ccc(F)cc2F)CC1)S(C)(=O)=O (single isomer, unassigned; diastereomer 2) | 57%
CC(C)CC(CN(C(C)C)S(C)(=O)=O)N1CCN(C(=O)[C@@H]2CN(C(C)(C)C)C[C@H]2c2ccc(F)cc2F)CC1 (single isomer, unassigned; diastereomer 2) [listing 1 of 2 here] | 76%
CC(C)N(CC(C1CCCCC1)N1CCN(C(=O)[C@@H]2CN(C(C)(C)C)C[C@H]2c2ccc(F)cc2F)CC1)C(=O)c1cnn(C(C)C)c1 (single isomer, unassigned; diastereomer 1) | 62%

Organism: Homo sapiens
Experiment: Selectivity ratio of EC50 for human MC5 receptor to EC50 for human MC4 receptor

SMILES | Ratio EC50
CC(=O)N(CC(C1CCCCC1)N1CCN(C(=O)[C@@H]2CN(C(C)(C)C)C[C@H]2c2ccc(F)cc2F)CC1)C(C)C (stereo in doubt; 19B) | 20
CC(=O)N(CC(CC(C)C)N1CCN(C(=O)[C@@H]2CN(C(C)(C)C)C[C@H]2c2ccc(F)cc2F)CC1)C(C)C (single isomer, unassigned; diastereomer 2) | 20
CC(C)N(CC(C1CCCCC1)N1CCN(C(=O)[C@@H]2CN(C(C)(C)C)C[C@H]2c2ccc(F)cc2F)CC1)S(C)(=O)=O (single isomer, unassigned; diastereomer 2) | 20
CC(C)CC(CN(C(C)C)S(C)(=O)=O)N1CCN(C(=O)[C@@H]2CN(C(C)(C)C)C[C@H]2c2ccc(F)cc2F)CC1 (single isomer, unassigned; diastereomer 2) [listing 1 of 2 here] | 20
CC(C)N(CC(C1CCCCC1)N1CCN(C(=O)[C@@H]2CN(C(C)(C)C)C[C@H]2c2ccc(F)cc2F)CC1)C(=O)c1cnn(C(C)C)c1 (single isomer, unassigned; diastereomer 1) | 20

These compounds were tested against T3, Melanocortin receptor 3 (assay: Displacement of [125I]NDP-alpha-MSH from human MC3 receptor expressed in CHO cells).
Assay type: cell-based

SMILES | IC50
CC(C)CC(CN(C(C)C)S(C)(=O)=O)N1CCN(C(=O)[C@@H]2CN(C(C)(C)C)C[C@H]2c2ccc(F)cc2F)CC1 (single isomer, unassigned; diastereomer 2) [listing 2 of 2 here] | 4.9 µM

These compounds were tested against T4, Melanocortin receptor 5 (assay: Displacement of [125I]NDP-alpha-MSH from human MC5 receptor expressed in CHO cells).
Assay type: cell-based

SMILES | IC50
CC(C)CC(CN(C(C)C)S(C)(=O)=O)N1CCN(C(=O)[C@@H]2CN(C(C)(C)C)C[C@H]2c2ccc(F)cc2F)CC1 (single isomer, unassigned; diastereomer 2) [listing 2 of 2 here] | 2800 nM
